The nature of data set [1]: Stability in mouse plasma assessed as parent compound remaining at 1 mM measured immediately by LC-MS/MS analysis. It counts as ADME, cell-free. The following applies: read-out: Stability.
For data set [2], the target named is DNA topoisomerase 2-alpha (Homo sapiens) (UniProt P11388). Kind of data set: Inhibition of recombinant human topoisomerase 2alpha-mediated relaxation of supercoiled pBR322 DNA at 100 uM measured after 30 mins by ethidium bromide staining based agarose gel electrophoresis relative to control.
Chain of DNA topoisomerase 2-alpha (Homo sapiens) (P11388 whole entry): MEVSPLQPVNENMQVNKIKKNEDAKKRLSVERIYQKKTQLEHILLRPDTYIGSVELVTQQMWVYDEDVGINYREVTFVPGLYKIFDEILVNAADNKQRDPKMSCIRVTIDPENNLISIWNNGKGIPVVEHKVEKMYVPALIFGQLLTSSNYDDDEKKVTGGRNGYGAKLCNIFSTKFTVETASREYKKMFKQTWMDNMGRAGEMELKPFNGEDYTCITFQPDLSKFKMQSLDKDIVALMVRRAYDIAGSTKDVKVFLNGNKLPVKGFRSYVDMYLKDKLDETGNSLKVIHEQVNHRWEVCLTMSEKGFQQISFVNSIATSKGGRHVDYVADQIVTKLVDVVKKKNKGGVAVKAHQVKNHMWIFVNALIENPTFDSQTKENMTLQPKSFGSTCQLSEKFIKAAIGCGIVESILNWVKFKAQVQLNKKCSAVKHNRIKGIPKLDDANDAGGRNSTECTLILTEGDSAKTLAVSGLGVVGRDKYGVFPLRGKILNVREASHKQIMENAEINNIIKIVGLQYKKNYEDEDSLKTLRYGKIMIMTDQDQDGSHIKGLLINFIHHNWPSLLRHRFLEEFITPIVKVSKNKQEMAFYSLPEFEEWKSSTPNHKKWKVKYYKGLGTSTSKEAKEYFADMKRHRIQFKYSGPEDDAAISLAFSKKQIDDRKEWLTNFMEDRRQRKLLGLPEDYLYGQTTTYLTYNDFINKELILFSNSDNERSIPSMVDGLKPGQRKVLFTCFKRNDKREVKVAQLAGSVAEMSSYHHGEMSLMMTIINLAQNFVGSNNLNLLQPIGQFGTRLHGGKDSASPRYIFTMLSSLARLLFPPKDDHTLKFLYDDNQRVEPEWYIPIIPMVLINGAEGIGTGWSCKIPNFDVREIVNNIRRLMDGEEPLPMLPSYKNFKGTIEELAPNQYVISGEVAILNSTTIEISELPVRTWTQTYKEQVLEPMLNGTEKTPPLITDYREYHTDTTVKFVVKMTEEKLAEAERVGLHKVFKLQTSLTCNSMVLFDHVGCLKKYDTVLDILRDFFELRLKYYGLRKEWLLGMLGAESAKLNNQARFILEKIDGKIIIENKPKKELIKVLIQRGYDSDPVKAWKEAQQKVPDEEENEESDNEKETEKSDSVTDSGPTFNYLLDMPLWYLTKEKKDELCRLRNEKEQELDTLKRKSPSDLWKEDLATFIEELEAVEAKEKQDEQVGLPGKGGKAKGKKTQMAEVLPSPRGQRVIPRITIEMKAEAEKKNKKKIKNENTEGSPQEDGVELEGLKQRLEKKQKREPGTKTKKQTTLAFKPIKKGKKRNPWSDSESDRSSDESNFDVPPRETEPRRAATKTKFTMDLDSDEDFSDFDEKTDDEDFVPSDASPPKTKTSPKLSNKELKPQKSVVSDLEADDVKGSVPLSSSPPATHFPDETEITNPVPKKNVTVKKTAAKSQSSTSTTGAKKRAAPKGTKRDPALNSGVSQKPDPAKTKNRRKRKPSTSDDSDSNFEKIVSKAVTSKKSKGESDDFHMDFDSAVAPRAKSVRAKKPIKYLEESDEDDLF
The target is the same in data set [3]. Kind of data set: Inhibition of recombinant human topoisomerase 2alpha-mediated relaxation of supercoiled pBR322 DNA at 20 uM measured after 30 mins by ethidium bromide staining based agarose gel electrophoresis relative to control.
For a further data set, the system named is DU-145. Kind of data set: Antiproliferative activity against human DU145 cells measured after 72 hrs by EZ-Cytox assay. It counts as functional, cell-based. The following applies: DU-145, 72 h.
Data set [4] is described as follows: Stability in human plasma assessed as parent compound remaining at 1 mM measured after 4 hrs by LC-MS/MS analysis. It counts as ADME, cell-free. The following applies: read-out: Stability.
The subject of the next data set is MDA-MB-436. Kind of data set: Antiproliferative activity against human MDA-MB-436 cells measured after 72 hrs by Ez-cytox assay. The note with it: MDA-MB-436, 72 h. It counts as functional, cell-based.
Data set [5] can be described thus: Toxicity in male ICR mouse assessed as mortality at 100 mg/kg, iv administered as single dose measured daily for 7 days (reference value: 0%). Type of data set: organism-based. The note with it: in vivo.
Data set [6] in a line: Stability in rat plasma assessed as parent compound remaining at 1 mM measured after 2 hrs by LC-MS/MS analysis. The note with it: 1000 µM. Type of data set: ADME, cell-free.
Data set [7] is described as follows: Stability in rat plasma assessed as parent compound remaining at 1 mM measured immediately by LC-MS/MS analysis. The following applies: read-out: Stability. Type of data set: ADME, cell-free.
The subject of data set [8] is T47D. Kind of data set: Antiproliferative activity against human T47D cells measured after 72 hrs by EZ-Cytox assay. Type of data set: functional, cell-based.
A short description of data set [9]: Stability in mouse plasma assessed as parent compound remaining at 1 mM measured after 0.5 hrs by LC-MS/MS analysis. Type of data set: ADME, cell-free. The note with it: 1000 µM.
Data set [10] concerns T47D. Kind of data set: Induction of DNA damage in human T47D cells at 5 to 10 uM measured after 24 hrs by comet assay. Type of data set: functional, cell-based.
A short description of data set [11]: Toxicity in female ICR mouse assessed as mortality at 50 mg/kg, iv administered as single dose measured daily for 7 days (reference value: 0%). It counts as organism-based. The following applies: in vivo.
The test system of data set [12] is T47D. Kind of data set: Induction of apoptosis in human T47D cells assessed as increase in Bax expression at 10 to 30 uM measured after 24 hrs by Western blot analysis. It counts as functional, cell-based. In general terms: In western blotting, separated proteins are transferred to a membrane and probed.
For the next data set, the system named is Calf thymus DNA. Kind of data set: Inhibition of EtBr binding to calf thymus DNA up to 40 uM measured after 30 mins by fluorescence assay. It counts as nucleic-acid assay. The note with it: Bos taurus.
For data set [13], the target named is T1, DNA topoisomerase 1 (Homo sapiens) (UniProt P11387).
T1 sequence (whole entry): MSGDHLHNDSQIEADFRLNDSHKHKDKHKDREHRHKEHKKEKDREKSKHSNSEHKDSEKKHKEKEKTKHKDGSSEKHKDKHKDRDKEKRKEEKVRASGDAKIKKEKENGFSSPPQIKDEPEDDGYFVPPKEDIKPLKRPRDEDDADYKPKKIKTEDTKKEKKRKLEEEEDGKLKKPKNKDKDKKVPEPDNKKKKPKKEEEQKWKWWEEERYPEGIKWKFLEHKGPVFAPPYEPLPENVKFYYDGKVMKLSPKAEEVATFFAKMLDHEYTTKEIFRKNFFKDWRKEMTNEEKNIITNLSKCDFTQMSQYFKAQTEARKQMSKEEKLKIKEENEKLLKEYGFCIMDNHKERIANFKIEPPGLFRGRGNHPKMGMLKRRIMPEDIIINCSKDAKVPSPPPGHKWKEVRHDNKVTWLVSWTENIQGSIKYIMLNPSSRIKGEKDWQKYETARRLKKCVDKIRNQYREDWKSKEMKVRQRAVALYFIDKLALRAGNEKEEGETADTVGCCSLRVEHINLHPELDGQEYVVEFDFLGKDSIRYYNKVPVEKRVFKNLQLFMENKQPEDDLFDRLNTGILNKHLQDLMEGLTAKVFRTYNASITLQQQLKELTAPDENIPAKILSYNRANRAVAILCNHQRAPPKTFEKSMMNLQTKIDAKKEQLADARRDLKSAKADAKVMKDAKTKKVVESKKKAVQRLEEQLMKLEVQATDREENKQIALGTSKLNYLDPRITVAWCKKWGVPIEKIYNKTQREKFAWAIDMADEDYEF
Kind of data set: Inhibition of recombinant human topoisomerase 1-mediated relaxation of supercoiled pBR322 DNA at 100 uM measured after 30 mins by ethidium bromide staining based agarose gel electrophoresis relative to control.

The subject of data set [14] is T47D. Kind of data set: Induction of apoptosis in human T47D cells assessed as increase in cleaved PARP expression at 10 to 30 uM measured after 24 hrs by Western blot analysis. Type of data set: functional, cell-based.
Data set [15] in a line: Stability in human plasma assessed as parent compound remaining at 1 mM measured after 1 hr by LC-MS/MS analysis. The following applies: read-out: Stability. It counts as ADME, cell-free.
The nature of data set [16]: Stability in human plasma assessed as parent compound remaining at 1 mM measured after 2 hrs by LC-MS/MS analysis. It counts as ADME, cell-free. The note with it: read-out: Stability.
Data set [17] can be described thus: Stability in rat plasma assessed as parent compound remaining at 1 mM measured after 0.5 hrs by LC-MS/MS analysis. It counts as ADME, cell-free. The note with it: read-out: Stability.

Each structure is given as a SMILES string. Active and inactive are the calls of the source. The calls are words filed in the database; no cut-off is given here.

By inhibition is commonly meant the share of the control response that was lost under treatment. In general, IC50 refers to the concentration at which inhibition is half-maximal. A higher IC50 goes with weaker potency in that assay. What is called mortality is the percentage killed.

As for `Oc1ccc(-c2cc(-c3ccccc3Cl)nc3c2Cc2c(O)cccc2-3)cc1`, the remaining at 0 h in [1] and in [7] was 100% throughout. The inhibition in data set [2] turned out to be 100%; in data set [3], 78.9%; in [13], 0%. For the same compound, the IC50 in the data set on DU-145 worked out at 72 nM; with MDA-MB-436 it was 2640 nM; in the data set on T47D [8], 2.67 nM. Also, the remaining at 4 h in [4] worked out at 105%. Moreover, the mortality at 168 h in data set [5] and in [11] was 0% throughout. For the same compound, the figures for the Stability in data set [6] and in data set [9] were 119.6% and 117.1%, respectively. In addition, the result in the data set with T47D [10], in the data set on T47D [12] and with T47D [14] was Active. For the same compound, in the data set on Calf thymus DNA, the inhibition result was “inactive”. Further, the remaining at 1 h in data set [15] was 104%. Also, the remaining at 2 h in [16] turned out to be 100%. In addition, in data set [17], the remaining at 0.5 h was found to be 99.8%.

These data come from ChEMBL document CHEMBL4373715, “Discovery and Biological Evaluations of Halogenated 2,4-Diphenyl Indeno[1,2-b]pyridinol Derivatives as Potent Topoisomerase IIα-Targeted Chemotherapeutic Agents for Breast Cancer” (J Med Chem, 2019).
